Experimental findings from ChEMBL document CHEMBL3507680, “University of Dundee, Gates Library screen for HepG2 cell viability” are described below.

A short description of this data set: Human HepG2 cell viability assay in 384 well format. It counts as toxicity, cell-based. Details: dose 125 nL, time 70.5 hour; cytotoxicity at 70.5 h: concentration not given beside the values. To be noted: HepG2 cells, read-out: Inhibition.
Take `Cc1nnc(SC2CCN(c3sccc3C#N)C2=O)[nH]1` (configuration not stated): the cytotoxicity at 70.5 h is -9.17%.

`Cc1cc(CCC(=O)NCc2ncc[nH]2)ccc1Br`: the cytotoxicity at 70.5 h was -0.138%.

For `Cc1nnc(SC2CCN(c3sccc3C#N)C2=O)s1` (configuration not stated), the cytotoxicity at 70.5 h stood at 24.5%.

On to `Cc1cc(CCC(=O)NCc2nccn2C)ccc1Br`, for which the cytotoxicity at 70.5 h was determined as 1.59%.

On to `CN1CCN(C(=O)c2cc[nH]c(=O)c2)Cc2ccccc21`, for which the cytotoxicity at 70.5 h was 1.93%.

On to `N#Cc1ccsc1N1CCC(Sc2ccncc2)C1=O` (configuration not stated), for which the cytotoxicity at 70.5 h was -7.07%.

As to `Cc1cc(=O)[nH]cc1C(=O)N1Cc2ccccc2N(C)CC1C` (configuration not stated), the cytotoxicity at 70.5 h worked out at 26%.

Take `CC1(C)CN=C(N2CCN(CC3CCOC3)CC2)S1` (configuration not stated): the cytotoxicity at 70.5 h was -12.3%.

For the compound `Cc1nn(C)c(C)c1C(=O)N1CCN(c2ccncc2Cl)CC1`, the cytotoxicity at 70.5 h is -6.89%.

Consider `CC(C)(CO)CCCNC(=O)NC1(C)Cc2ccccc2C1`, for which the cytotoxicity at 70.5 h is -0.326%.

For `COC1CCN(C(=O)c2ccccc2NCc2cccnc2)CC1`, the cytotoxicity at 70.5 h is -2.63%.

For the compound `COc1ccc(CC(=O)N(C)c2cccnc2N(C)C)c(Cl)c1`, the cytotoxicity at 70.5 h is -1.15%.

For `CC(C)(C)n1cc(CNc2ccc(CNS(C)(=O)=O)cc2)cn1`, the cytotoxicity at 70.5 h is -8.49%.

For the compound `CN1CCCN(C(=O)c2cccn2-c2ccc3c(c2)OCCO3)CC1`, the cytotoxicity at 70.5 h is -5.24%.

For the compound `O=C(c1cccn1-c1ccc2c(c1)OCCO2)N1CCCC1`, the cytotoxicity at 70.5 h was -11.9%.

Turning to `COC(=O)C1CCCN1C(=O)c1ccc(-n2nc(C)cc2C)cc1` (configuration not stated), the cytotoxicity at 70.5 h was -4.44%.

On to `COc1ccc(N(Cc2ccco2)C(=O)C2CCOC2)cc1F` (configuration not stated), for which the cytotoxicity at 70.5 h was -6.7%.

With `CCOC(=O)C1CSCCN1C(=O)c1ccc(-n2nc(C)cc2C)cc1` (configuration not stated), the cytotoxicity at 70.5 h was 3.47%.

Regarding `COc1c(CNC(C)C(=O)NC2CCCC2)c(C)nn1C` (configuration not stated), the cytotoxicity at 70.5 h was -6.91%.

For the compound `O=C(Nc1nnn[nH]1)c1ccc(I)c(F)c1`, the cytotoxicity at 70.5 h came to 4.13%.

For `CC(=O)N1CCCN(C(=O)NC(C)c2csc3ccccc23)CC1` (configuration not stated), the cytotoxicity at 70.5 h was -6.35%.

Take `Cc1cccc(NC(=O)N2CCN(Cc3nnc(C(C)C)o3)CC2)c1`: the cytotoxicity at 70.5 h was -7.45%.

In the case of `CCCN1CCC(Nc2nc(C)ns2)CC1`, the cytotoxicity at 70.5 h is -8.37%.

Consider `C=C(C)CN1CCC(Nc2nc(C)ns2)CC1`, for which the cytotoxicity at 70.5 h was -0.501%.

`Cc1c(Cl)ccc2ccc(NC(CO)CO)nc12`: the cytotoxicity at 70.5 h came out at 6.75%.

With `Cc1ccc(Cl)c2ccc(NC(CO)CO)nc12`, the cytotoxicity at 70.5 h was determined as 0.998%.

As for `Cc1nnc2ccc(C(=O)N3CCSC(C)(C)C3)cn12`, the cytotoxicity at 70.5 h was determined as 11.4%.

Consider `Cc1nnc(CN(C)Cc2nc3c(s2)CCCC3)o1`, for which the cytotoxicity at 70.5 h is -5.09%.

Consider `CN(Cc1nnc(-c2cccs2)o1)Cc1nc2c(s1)CCCC2`, for which the cytotoxicity at 70.5 h was -14.1%.

Take `CCOCC(=O)N(Cc1ccco1)c1ccc(OC)c(F)c1`: the cytotoxicity at 70.5 h is -5.82%.

Turning to `CN1CCN(CC(=O)NCc2ccco2)Cc2ccccc21`, the cytotoxicity at 70.5 h was -13.5%.

In the case of `Fc1ccc(-c2nnc(CNC3CCc4ncnn4C3)o2)cc1` (configuration not stated), the cytotoxicity at 70.5 h is -12.1%.

As for `COC(=O)N1CCCC(C(=O)N(C)C)C1` (configuration not stated), the cytotoxicity at 70.5 h was -9.72%.

On to `Cc1nc(CN2CCCC(N(C)c3ccc(C#N)cn3)C2)no1` (configuration not stated), for which the cytotoxicity at 70.5 h was -2.54%.

In the case of `NC(=O)NC(=O)CNc1cccc(C(=O)c2ccccc2)c1`, the cytotoxicity at 70.5 h came out at 13.6%.

Turning to `CCNC(=O)NC(=O)CNc1cccc(C(=O)c2ccccc2)c1`, the cytotoxicity at 70.5 h is -12.7%.

With `CN(C)C(=O)C1CCN(C(=O)c2c[nH]c3cc(Cl)ccc23)CC1`, the cytotoxicity at 70.5 h is -8.29%.

Take `CC(C)(C)C(=O)NCC(=O)NCCc1nc(C(F)(F)F)cs1`: the cytotoxicity at 70.5 h is -9.84%.

For the compound `CN(Cc1ccccc1F)C(=O)Cn1cc(NC(=O)C(C)(C)C)cn1`, the cytotoxicity at 70.5 h is 10.7%.

Regarding `O=C(Nc1ccc(-c2nnc[nH]2)cc1)C1CCN1Cc1ccccc1` (configuration not stated), the cytotoxicity at 70.5 h was 14.7%.

Take `CCS(=O)(=O)NCC(=O)Nc1cc(CC(C)(C)C)n[nH]1`: the cytotoxicity at 70.5 h amounted to 0.46%.

With `O=C(NC1CCN(c2ncccc2F)C1)c1cccc(-n2ccnn2)c1` (configuration not stated), the cytotoxicity at 70.5 h was -6.27%.

In the case of `CC(C)(C)c1nc(CNC(=O)N2CCc3ccccc3C2CO)no1` (configuration not stated), the cytotoxicity at 70.5 h is -2.31%.

For the compound `CCc1nc(CNc2ccc(F)cc2I)no1`, the cytotoxicity at 70.5 h stood at 2.16%.

In the case of `Cc1cc(Cl)ccc1NCc1ccc(C(=O)N(C)C)[nH]1`, the cytotoxicity at 70.5 h was -4.01%.

Turning to `Cc1cc(Br)ccc1NCc1ccc(C(=O)N(C)C)[nH]1`, the cytotoxicity at 70.5 h worked out at 18.2%.

As to `CC(c1ccccc1)N(C)C(=O)Cn1cc(NC(=O)C(C)(C)C)cn1` (configuration not stated), the cytotoxicity at 70.5 h was -3.77%.

As for `CC(C)N(C)CC(=O)NCCc1nc(C(F)(F)F)cs1`, the cytotoxicity at 70.5 h was -5.26%.

With `Cc1cnn(CC(C)Nc2nc(C)cc(N(C)C)n2)c1` (configuration not stated), the cytotoxicity at 70.5 h is -6.1%.

On to `Cc1csc(CCCNC(C)CC(=O)Nc2cccc(C)c2C)n1` (configuration not stated), for which the cytotoxicity at 70.5 h was -4.67%.

Take `Cc1noc(CCCNC(=O)N2CCc3ccccc3C2CO)n1` (configuration not stated): the cytotoxicity at 70.5 h is 14.9%.

As to `CCc1cnc(CCNC(C)CC(=O)Nc2cccc(C)c2C)s1` (configuration not stated), the cytotoxicity at 70.5 h was -5.98%.

`CC(NCC(=O)N(C)C1CC1)c1ccc(S(C)(=O)=O)c(F)c1` (configuration not stated): the cytotoxicity at 70.5 h is -9.06%.

In the case of `O=C(NC1CCN(CC2CC2)C1)c1ccc(C(=O)c2cc[nH]c2)cc1` (configuration not stated), the cytotoxicity at 70.5 h was -9.44%.

`CC(C)c1noc(CS(=O)(=O)CC(=O)NCCOc2ccccc2)n1`: the cytotoxicity at 70.5 h was -13.7%.

Consider `COCCCNC(=O)COc1ccccc1C(F)(F)F`, for which the cytotoxicity at 70.5 h is -5.58%.

With `CC(NC(=O)Cn1cccnc1=O)c1ccc(OC(F)(F)F)cc1` (configuration not stated), the cytotoxicity at 70.5 h was -8.28%.

`CC(Sc1nnc(C2CC2)n1CC(N)=O)c1ccc(F)cc1F` (configuration not stated): the cytotoxicity at 70.5 h was -4.59%.

As for `NC(=O)C(NC(=O)c1cc(Cl)c[nH]1)c1ccccc1` (configuration not stated), the cytotoxicity at 70.5 h was -8.05%.

For `COc1ccccc1CC(=O)NC(CC(=O)O)c1ccc(C)cc1` (configuration not stated), the cytotoxicity at 70.5 h is -6.19%.

For the compound `CC(C)c1noc(CS(=O)(=O)CC(=O)NCC(F)(F)F)n1`, the cytotoxicity at 70.5 h is -6.46%.

`Cc1nc(CC(=O)N2CCN(C(C)c3ccccc3F)CC2)cs1` (configuration not stated): the cytotoxicity at 70.5 h is -5.6%.

With `Cc1ncc(CNC(=O)c2oc3ccccc3c2CN(C)C)s1`, the cytotoxicity at 70.5 h is -8.45%.

On to `Cc1cnccc1NC(=O)CCc1ccsc1`, for which the cytotoxicity at 70.5 h is -13.1%.

For `Cc1ccc(C(=O)NCCNC(=O)N(C)C(C)c2ccccn2)cc1` (configuration not stated), the cytotoxicity at 70.5 h was -2.96%.

`Cc1ccc(=O)n(CC(=O)N2CCCC(c3nc(C)c(C)s3)C2)n1` (configuration not stated): the cytotoxicity at 70.5 h is -5.44%.

Turning to `CNc1nc(CNC(=O)Nc2ccccc2OC(C)C)cs1`, the cytotoxicity at 70.5 h was 14%.

On to `COC(=O)[C@H]1CCCCN1C(=O)c1cccc(-n2cccn2)c1`, for which the cytotoxicity at 70.5 h is -4.76%.

In the case of `Cc1ccn(-c2ccc(NCc3cccnc3N3CCCCC3)nn2)n1`, the cytotoxicity at 70.5 h was 12.6%.

For the compound `Cn1cc(C(=O)N2CCOc3cc(F)ccc32)ccc1=O`, the cytotoxicity at 70.5 h was -7.98%.

`O=c1[nH]c(N2CC(O)C2)nc2c1cnn2-c1ccccc1`: the cytotoxicity at 70.5 h was -9.7%.

As for `COC(=O)C1(C)CCN(C(=O)NCCc2c(C)[nH]c3ccccc23)C1` (configuration not stated), the cytotoxicity at 70.5 h is -3.86%.

Regarding `CC(OCC1CC1)C(=O)NCc1ccc(Cn2ccnc2)cc1` (configuration not stated), the cytotoxicity at 70.5 h is -6.63%.

For the compound `Cc1noc(C)c1CN1CCCC(CN(C(=O)OC(C)(C)C)C(C)C)C1` (configuration not stated), the cytotoxicity at 70.5 h was -3.37%.

`CCn1c(C)nnc1CN(C)C1CCN(Cc2nccn2C)C1` (configuration not stated): the cytotoxicity at 70.5 h was 3.01%.

Consider `CCOc1ccccc1CSc1nnc(CC2CCS(=O)(=O)C2)n1C` (configuration not stated), for which the cytotoxicity at 70.5 h was -11.4%.

In the case of `Cn1c(CC2CCS(=O)(=O)C2)nnc1SCCOc1cccc(Cl)c1` (configuration not stated), the cytotoxicity at 70.5 h is -11.2%.

For `O=C(NCc1cccnc1)C1=NN(c2ccccc2)C(=O)CN1`, the cytotoxicity at 70.5 h was -13.9%.

As for `COCc1ccc(CNC(=O)C2=NN(c3ccccc3)C(=O)CN2)cc1`, the cytotoxicity at 70.5 h was -12.2%.

Regarding `O=C(NCc1cc[nH]n1)NCC(c1ccco1)N1CCCC1` (configuration not stated), the cytotoxicity at 70.5 h was -13.5%.

Take `O=C(c1ccn(-c2ccccc2Cl)n1)N1CCSCC1`: the cytotoxicity at 70.5 h is -14.1%.

As to `CCS(=O)(=O)NCCNC(=O)c1cc(Cl)c2c(c1)OCCCO2`, the cytotoxicity at 70.5 h is -9.4%.

`Cc1nn(C)c(N(C)C)c1CNCc1cccc(CN(C)C(C)C)c1`: the cytotoxicity at 70.5 h is -9.1%.

Take `CCn1nc(-c2ccccc2F)ccc1=O`: the cytotoxicity at 70.5 h was -8.76%.

In the case of `Cn1cc(CNCCOc2ccc(F)c(F)c2)c(-c2cccnc2)n1`, the cytotoxicity at 70.5 h was -5.61%.

In the case of `Cc1cccc(CNC(CN2CCN(C)CC2)c2ccccc2)c1` (configuration not stated), the cytotoxicity at 70.5 h is 10.9%.

Consider `CCN(CC)C(=O)CCNc1cncc(-n2nc(C)cc2C)n1`, for which the cytotoxicity at 70.5 h was -1.19%.

For the compound `Cc1ccc(C2CSCCN2C(=O)c2ccc(C(N)=O)cc2)o1` (configuration not stated), the cytotoxicity at 70.5 h is -9.63%.

As to `CC(C)OCCN(Cc1cccc(O)c1)C1CCC(O)CC1` (configuration not stated), the cytotoxicity at 70.5 h is -3.81%.

`CC(=O)N(Cc1ncc(C)o1)C1CCN(Cc2cccc(C#N)c2)C1` (configuration not stated): the cytotoxicity at 70.5 h was -5.2%.

On to `CC(C)c1csc(C2CCCN(C(=O)c3ncccn3)C2)n1` (configuration not stated), for which the cytotoxicity at 70.5 h was 13%.

`Cc1csc(C2CCCN(C(=O)c3ccc(=O)n(C)n3)C2)n1` (configuration not stated): the cytotoxicity at 70.5 h is -9.44%.

Regarding `COc1ccc(CN2CCCCC2CNC(=O)OC(C)(C)C)cc1F` (configuration not stated), the cytotoxicity at 70.5 h is -7.89%.

For the compound `CCCc1n[nH]c(C2CN(CCS(=O)(=O)CC)CCO2)n1` (configuration not stated), the cytotoxicity at 70.5 h was -7.9%.

Turning to `CCCc1n[nH]c(C2CN(CCC(F)(F)F)CCO2)n1` (configuration not stated), the cytotoxicity at 70.5 h is -5.18%.

In the case of `CC(C)c1n[nH]c(C2CN(CCCS(C)(=O)=O)CCO2)n1` (configuration not stated), the cytotoxicity at 70.5 h was -4.2%.

For `Cc1cc(C(=O)N2CCc3nnc(N)cc3C2)c(C)n1-c1ccccc1`, the cytotoxicity at 70.5 h was -1.62%.

Turning to `O=C(NCCc1ccc(Cl)s1)N1CCS(=O)(=O)CC1`, the cytotoxicity at 70.5 h was -3.08%.

In the case of `O=C(Cc1csc(-c2ccsc2)n1)N1CCN(c2cnccn2)CC1`, the cytotoxicity at 70.5 h is -10.1%.

For the compound `CNC(=O)CN1CCN(C(=O)c2ccn(C)c(=O)c2)CC1`, the cytotoxicity at 70.5 h turned out to be 31.2%.

`Cc1ccc(CNC(=O)NCCCO)cc1`: the cytotoxicity at 70.5 h amounted to 19.3%.

In the case of `CCC(C)(N)c1nc(=O)c(C(C)C)c(C)[nH]1` (configuration not stated), the cytotoxicity at 70.5 h was -5.63%.
